Results as given in the NIST ThermoML archive (doi:10.1021/acs.jced.9b00028).
± gives the expanded uncertainty stated by the source.

Key:
[1] = Crystal; DSC
[2] = Molar enthalpy of transition or fusion; conditions: Crystal; DSC

| Triple point temperature [1] [K] | Molar enthalpy of transition or fusion [2] [kcal/mol] | SMILES |
| --- | --- | --- |
| 452.15 ± 1.2 | 9.51 ± 0.263 | Oc1c(Cl)cc(Cl)c2cccnc12 [5,7-dichloro-8-hydroxyquinoline] |
| 395.48 ± 1.2 | 6.05 ± 0.227 | Oc1ccc(Cl)c2cccnc12 [5-chloro-8-hydroxyquinoline] |
